Assay results reported in the NIST ThermoML archive (doi:10.1016/j.jct.2012.03.031).

Assay: molar heat capacity at constant pressure
Conditions: 101.33 kPa

CCCCc1ccc(C(=O)Oc2ccc(C#N)c(F)c2)cc1 [4-cyano-3-fluorophenyl 4-butylbenzoate]
Conditions | molar heat capacity at constant pressure [J/K/mol]
265.96 K, Crystal 1, Small (less than 1 g) adiabatic calorimetry | 364.99
266.18 K, Crystal 1, Small (less than 1 g) adiabatic calorimetry | 364.4
267.04 K, Crystal 1, Small (less than 1 g) adiabatic calorimetry | 367.18
268.11 K, Crystal 1, Small (less than 1 g) adiabatic calorimetry | 369.24
269.18 K, Crystal 1, Small (less than 1 g) adiabatic calorimetry | 371.72
269.46 K, Crystal 1, Small (less than 1 g) adiabatic calorimetry | 369.89
270 K, Crystal 1, Vacuum adiabatic calorimetry | 371.52
270.25 K, Crystal 1, Small (less than 1 g) adiabatic calorimetry | 373.77
271.31 K, Crystal 1, Small (less than 1 g) adiabatic calorimetry | 375.16
272.37 K, Crystal 1, Small (less than 1 g) adiabatic calorimetry | 378.43
272.76 K, Crystal 1, Small (less than 1 g) adiabatic calorimetry | 379.8
273.42 K, Crystal 1, Small (less than 1 g) adiabatic calorimetry | 380.54
274.47 K, Crystal 1, Small (less than 1 g) adiabatic calorimetry | 383.84
275.53 K, Crystal 1, Small (less than 1 g) adiabatic calorimetry | 385.34
276.08 K, Crystal 1, Small (less than 1 g) adiabatic calorimetry | 388.45
276.58 K, Crystal 1, Small (less than 1 g) adiabatic calorimetry | 389.76
277.62 K, Crystal 1, Small (less than 1 g) adiabatic calorimetry | 392.5
278.67 K, Crystal 1, Small (less than 1 g) adiabatic calorimetry | 396.43
279.42 K, Crystal 1, Small (less than 1 g) adiabatic calorimetry | 397.42
279.7 K, Crystal 1, Small (less than 1 g) adiabatic calorimetry | 398.5
280 K, Crystal 1, Vacuum adiabatic calorimetry | 397.19
281.47 K, Crystal 1, Small (less than 1 g) adiabatic calorimetry | 402.8
282.22 K, Crystal 1, Small (less than 1 g) adiabatic calorimetry | 405.47
282.99 K, Crystal 1, Small (less than 1 g) adiabatic calorimetry | 408.97
283.75 K, Crystal 1, Small (less than 1 g) adiabatic calorimetry | 414.38
284.5 K, Crystal 1, Small (less than 1 g) adiabatic calorimetry | 422.32
285.25 K, Crystal 1, Small (less than 1 g) adiabatic calorimetry | 436.88
285.98 K, Crystal 1, Small (less than 1 g) adiabatic calorimetry | 474.25

Liquid
Conditions | molar heat capacity at constant pressure [J/K/mol]
289.24 K, Small (less than 1 g) adiabatic calorimetry | 479.05
289.97 K, Small (less than 1 g) adiabatic calorimetry | 476.93
290 K, Vacuum adiabatic calorimetry | 473.62
290.7 K, Small (less than 1 g) adiabatic calorimetry | 476.25
291.67 K, Small (less than 1 g) adiabatic calorimetry | 476.45
291.8 K, Small (less than 1 g) adiabatic calorimetry | 475.34
293.12 K, Small (less than 1 g) adiabatic calorimetry | 477.07
294.48 K, Small (less than 1 g) adiabatic calorimetry | 476.74
295.04 K, Small (less than 1 g) adiabatic calorimetry | 477.7
297.17 K, Small (less than 1 g) adiabatic calorimetry | 477.75
297.43 K, Small (less than 1 g) adiabatic calorimetry | 478.84
298.15 K, Vacuum adiabatic calorimetry | 478.16
299.87 K, Small (less than 1 g) adiabatic calorimetry | 478.89
300 K, Vacuum adiabatic calorimetry | 478.96
302.6 K, Small (less than 1 g) adiabatic calorimetry | 480.42
305.34 K, Small (less than 1 g) adiabatic calorimetry | 481.47
308.1 K, Small (less than 1 g) adiabatic calorimetry | 482.84
310 K, Vacuum adiabatic calorimetry | 483.98
310.87 K, Small (less than 1 g) adiabatic calorimetry | 484.5
313.66 K, Small (less than 1 g) adiabatic calorimetry | 486.08
316.47 K, Small (less than 1 g) adiabatic calorimetry | 487.53
319.29 K, Small (less than 1 g) adiabatic calorimetry | 489.61
320 K, Vacuum adiabatic calorimetry | 490.09
322.13 K, Small (less than 1 g) adiabatic calorimetry | 491.52
324.98 K, Small (less than 1 g) adiabatic calorimetry | 493.16
327.85 K, Small (less than 1 g) adiabatic calorimetry | 495.06
330 K, Vacuum adiabatic calorimetry | 496.49
330.74 K, Small (less than 1 g) adiabatic calorimetry | 496.98
333.64 K, Small (less than 1 g) adiabatic calorimetry | 498.96
336.55 K, Small (less than 1 g) adiabatic calorimetry | 500.86
339.48 K, Small (less than 1 g) adiabatic calorimetry | 502.59
340 K, Vacuum adiabatic calorimetry | 502.96
342.43 K, Small (less than 1 g) adiabatic calorimetry | 504.71
345.39 K, Small (less than 1 g) adiabatic calorimetry | 506.48
348.36 K, Small (less than 1 g) adiabatic calorimetry | 508.66
350 K, Vacuum adiabatic calorimetry | 509.84
351.35 K, Small (less than 1 g) adiabatic calorimetry | 510.81
354.35 K, Small (less than 1 g) adiabatic calorimetry | 513
357.37 K, Small (less than 1 g) adiabatic calorimetry | 514.97
360.4 K, Small (less than 1 g) adiabatic calorimetry | 517.24
